From paper PMC8493801, “Exploring the Monoterpene Indole Alkaloid Scaffold for Reversing P-Glycoprotein-Mediated Multidrug Resistance in Cancer” (Pharmaceuticals, 2021)

Tests used:
[1] = test system: human ABCB1-gene transfected L5178Y subline (MDR); conditions: for RR (relative resistance ratio) = IC50MDR/IC50PAR: RR ≤ 0.5 means CS effect
[2] = test system: sensitive L5178Y mouse T-lymphoma cells (PAR); assay: MTT antiproliferative assay, sensitive cells; format: cell-based; conditions: 72 h, mean ± SD
Description: (§1) Non-cancer mouse embryonic fibroblasts (NIH/3T3) were also used.
(§2) L5178Y mouse T-lymphoma cells (ECACC catalog no. 87111908, US FDA, Silver Spring, MD, USA) were transfected with the pHa MDR1/A retrovirus as previously reported. The ABCB1 (P-gp) overexpressing cells were selected by culturing the infected cells with 60 ng/mL of colchicine (Sigma-Aldrich Chemie GmbH, Steinheim, Germany) to preserve the MDR phenotype. L5178Y (parental, PAR) mouse T-cell lymphoma cells and the human ABCB1-transfected subline were cultured in McCoy’s 5A supplemented with 10% heat-inactivated horse serum, 100 U/L L-glutamine, and 100 mg/L penicillin-streptomycin mixture, all obtained from Sigma-Aldrich. The mouse embryonic fibroblast (NIH 3T3) cell line was purchased from ATCC (CRL-1658) and was cultured in DMEM medium supplemented with 10% fetal bovine serum. These adherent cells were detached using 0.25% trypsin and 0.02% EDTA for 5 min at 37 °C. Before the antiproliferative assay using NIH 3T3 cell line, the cells were seeded in untreated 96-well flat bottomed microtiter plates, following a 4 h incubation period in a humidified atmosphere (5% CO2, 95% air) at 37 °C.
The assay was performed according to the previously applied experimental settings.

[3] = test system: human ABCB1-transfected L5178Y mouse lymphoma cells; assay: Checkerboard combination assay with doxorubicin; format: cell-based; parameters: key to CI at ED50 (combination index): CI <1 synergy, =1 additive, >1 antagonism; conditions: MDR cells; for CI at ED50 (combination index): best ratio
Description: The in vitro interactions between the compounds and the well-known antitumor drug and P-gp substrate, doxorubicin, were evaluated in a combination chemotherapy model on human ABCB1-transfected mouse T-lymphoma cells. The nature of drug–drug interactions was assessed by determination of the combination index (CI) using the Chou and Talalay method (Figure 1), and therefore evaluated as synergistic (CI < 1), additive (CI = 1), or antagonistic (CI > 1).
Doxorubicin (2 mg/mL, Teva Pharmaceuticals, Budapest, Hungary) was serially diluted horizontally in 100 µL as previously described, starting with 8.6 µM. The resistance modifier was subsequently diluted vertically in 50 µL; the starting concentration was determined based on the IC50. […] The checkerboard plates were kept for 72 h at 37 °C in a CO2 incubator, and at the end of the incubation period, the cell growth was determined by MTT staining method, as described earlier. Drug interactions were evaluated using Calcusyn software. Each dose–response curve (for individual agents as well as combinations) was fit to a linear model using the median effect equation in order to obtain the median effect value (corresponding to the IC50) and slope (m). The goodness-of-fit was assessed using the linear correlation coefficient, r, and only data from analysis with r > 0.90 were presented. The extent of interaction between drugs was expressed using the combination index, in which a CI value close to 1 indicates additivity, while a CI < 1 is defined as synergy and a CI > 1 as antagonism.

[4] = test system: mouse embryonic fibroblasts (NIH/3T3); assay: MTT antiproliferative assay, non-cancer cells; format: cell-based; conditions: for SI C/B (Selectivity Index): IC50 NIH/3T3 / IC50 MDR; for SI C/A (Selectivity Index): IC50 NIH/3T3 / IC50 PAR; for IC50: NIH3T3, non-cancer mouse embryonic fibroblasts, MTT, read-out: IC50 NIH/3T3 (C)
Description: as §1
In addition, the antiproliferative activity of the compounds was also evaluated on non-cancerous mouse embryonic fibroblast cells (NIH/3T3), whose values were compared with those of PAR and MDR cells by evaluation of the selective index (SI) values. […] The highest selective index values (SIC/A = 9.39; SIC/B = 10.79) were found for the derivative bearing the trimethoxyphenyl substituent (17).
as §2

[5] = target: T1, recombinant human P-gp membranes (Homo sapiens, UniProt P08183); assay: P-gp ATPase activity assay (Pgp-Glo); format: biochemical; conditions: 25 µM
T1 construct: purchased Promega
Text: Once it was established that ATP hydrolysis is directly associated with the P-gp efflux activity, the interaction mode between selected compounds (12, 17, 18, 20, and 29) and this transporter protein was further investigated using human P-gp membranes in the ATPase activity assay (P-gp-Glo^TM) to gather insights about their interaction with P-gp activity, namely, as stimulators or inhibitors. This ATPase activity assay is based on the ATP dependence of the light-generating reaction of firefly luciferase. After incubating P-gp with ATP, the reaction is stopped, and the ATP consumption by P-gp is given by a luciferase-generated luminescent signal due to the remaining unmetabolized ATP. Thus, a greater decrease in the signal means a higher P-gp activity.
Sodium orthovanadate (Vanadate, Na3VO4) is an inhibitor of P-gp ATPase activity; thus, after treating samples with vanadate, no P-gp-dependent ATP consumption is observed. Therefore, the P-gp basal ATP consumption (basal activity) is defined as the difference between the luminescent signal of samples treated with vanadate and untreated. Consequently, the tested compounds were ranked as stimulators or inhibitors by comparing their P-gp ATPase activity with the basal activity. Verapamil (0.5 mM), a known P-gp substrate and activator of the ATPase activity of this transporter, thus causing a decrease in the percentage of luminescence of luciferase when compared with untreated samples (Figure 2), was used as control. The results are represented in Figure 2 as the difference between the luminescence of luciferase observed when treated with the compounds and with vanadate in comparison with the basal activity (100%).
The P-glycoprotein ATPase activity was determined using the Pgp-Glo^TM Assay Systems Promega kit according to the manufacturer’s instructions. Briefly, 20 µL of recombinant human P-gp membranes (1.25 mg/mL), expressing high levels of human P-gp, were incubated in 20 µL of Pgp-Glo^TM assay buffer for 5 min at 37 °C. Compounds were tested at 25 µM sodium orthovanadate (Na3VO4, 0.25 mM) as an inhibitor control, verapamil as a substrate control (0.5 mM), and DMSO at 2% as solvent control. The reaction was initiated by adding 10 µL of 25 mM MgATP and incubated at 37 °C for 40 min. The ATPase reaction was stopped, and after adding 50 µL of ATP Detection Reagent, the samples were incubated at room temperature for 20 min. The luciferase-generated luminescent signal emitted was measured in a CLARIOstar Plus plate reader (BMG Labtech, UK) at 580 nm. The % of basal P-gp activity was calculated through the ratio between the luminescence measured of the P-gp ATPase activity of each compound and the basal activity according to Equation (4).
(4) % basal P-gp activity = LumNa3VO4−Lumtreated/LumNa3VO4−Lumuntreated×100%
Figure 2 Effect of compounds 12, 17, 18, 20, 29, and verapamil (VER) on P-gp ATPase activity. The compounds are identified as P-gp substrates if they stimulate its basal activity (>100%) or as modulators when inhibiting basal activity (<100%). Compounds were tested at 25 µM and verapamil at 0.5 mM. Results were calculated as the means ± SD from experiments performed in triplicates.

T1 sequence (P08183 whole entry): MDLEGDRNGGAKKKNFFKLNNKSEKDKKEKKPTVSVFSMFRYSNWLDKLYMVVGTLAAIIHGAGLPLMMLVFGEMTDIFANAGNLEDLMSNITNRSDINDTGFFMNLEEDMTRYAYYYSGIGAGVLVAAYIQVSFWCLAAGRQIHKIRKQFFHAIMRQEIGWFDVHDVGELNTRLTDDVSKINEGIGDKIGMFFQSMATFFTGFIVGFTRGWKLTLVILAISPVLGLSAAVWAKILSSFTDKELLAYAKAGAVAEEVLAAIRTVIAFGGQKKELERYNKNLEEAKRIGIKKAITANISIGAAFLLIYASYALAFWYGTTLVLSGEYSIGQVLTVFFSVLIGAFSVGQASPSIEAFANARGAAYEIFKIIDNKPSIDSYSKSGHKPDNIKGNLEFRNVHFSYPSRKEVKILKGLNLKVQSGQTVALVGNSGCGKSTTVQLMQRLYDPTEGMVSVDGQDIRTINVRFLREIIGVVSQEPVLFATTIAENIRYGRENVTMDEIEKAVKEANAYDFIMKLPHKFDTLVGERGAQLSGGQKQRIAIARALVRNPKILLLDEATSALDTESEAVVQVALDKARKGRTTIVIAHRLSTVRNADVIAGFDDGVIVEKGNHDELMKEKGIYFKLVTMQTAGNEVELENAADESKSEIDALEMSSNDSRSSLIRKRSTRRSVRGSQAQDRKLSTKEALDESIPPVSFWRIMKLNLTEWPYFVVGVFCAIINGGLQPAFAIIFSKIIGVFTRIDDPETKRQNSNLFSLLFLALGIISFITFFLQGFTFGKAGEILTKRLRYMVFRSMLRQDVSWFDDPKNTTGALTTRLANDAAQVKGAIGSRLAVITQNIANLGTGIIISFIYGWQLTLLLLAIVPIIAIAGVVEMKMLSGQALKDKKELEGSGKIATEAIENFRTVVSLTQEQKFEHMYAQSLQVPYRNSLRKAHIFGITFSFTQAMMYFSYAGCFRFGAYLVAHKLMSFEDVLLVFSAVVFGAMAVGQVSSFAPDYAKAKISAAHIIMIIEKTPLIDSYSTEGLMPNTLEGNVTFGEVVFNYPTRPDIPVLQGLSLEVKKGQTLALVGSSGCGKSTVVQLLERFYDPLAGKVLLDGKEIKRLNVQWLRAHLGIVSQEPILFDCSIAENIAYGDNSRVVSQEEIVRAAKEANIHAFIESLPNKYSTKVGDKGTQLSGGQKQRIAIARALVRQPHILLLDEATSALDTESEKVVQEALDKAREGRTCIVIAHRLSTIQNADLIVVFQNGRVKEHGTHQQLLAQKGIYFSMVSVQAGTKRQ

Row | IC50 [1] [µM] | RR (relative resistance ratio) = IC50MDR/IC50PAR [1] | IC50 [2] [µM] | Effect on P-gp ATPase activity [5] | % basal P-gp activity ([5]; basal activity = 100%) [%] | SMILES | Interaction [3] | CI at ED50 (combination index) [3] | SI C/B (Selectivity Index) [4] | SI C/A (Selectivity Index) [4] | IC50 [4] [µM]
1 | 5.21 ± 0.09 | 0.84 | 6.22 ± 0.59 | – | – | CCC1CN(C)C2Cc3c([nH]c4ccccc34)C(=NNC(=O)Nc3ccc(Cl)cc3)CC1C2C(=O)OC (centres unmarked) [Compound 28, 3-[2″-((4‴-chlorophenyl)carbamoyl)hydrazineylidene]dregamine] | Strong Synergism | 0.158 | 2.45 | 2.06 | 12.8 ± 0.95
2 | 4.83 ± 0.05 | 0.80 | 6.04 ± 0.36 | – | – | CCC1CN(C)C2Cc3c([nH]c4ccccc34)C(=NNC(=O)Nc3ccc([N+](=O)[O-])cc3)CC1C2C(=O)OC (centres unmarked) [Compound 30, 3-[2″-((4‴-nitrophenyl)carbamoyl)hydrazineylidene]dregamine] | Synergism | 0.423 | 2.90 | 2.32 | 14 ± 0.92
3 | 6.48 ± 0.25 | 0.93 | 6.97 ± 0.12 | – | – | CCC1CN(C)C2Cc3c([nH]c4ccccc34)C(=NNC(=O)Nc3ccc(C(F)(F)F)cc3)CC1C2C(=O)OC (centres unmarked) [Compound 31, 3-[2″-((4‴-(trifluoromethyl)phenyl)carbamoyl)hydrazineylidene]dregamine] | Strong Synergism | 0.296 | 1.03 | 0.96 | 6.7 ± 0.06
4 | 4.46 ± 1.38 | 0.65 | 6.82 ± 0.64 | – | – | CCC1CN(C)C2Cc3c([nH]c4ccccc34)C(=NNC(=O)NCCCc3ccccc3)CC1C2C(=O)OC (centres unmarked) [Compound 32, 3-[2″-((3-phenylpropyl)carbamoyl)hydrazineylidene]dregamine] | Synergism | 0.384 | 2.13 | 1.39 | 9.51 ± 0.52

Continued, compound first:

Row | SMILES | IC50 [1] [µM] | RR (relative resistance ratio) = IC50MDR/IC50PAR [1] | IC50 [2] [µM] | Effect on P-gp ATPase activity [5] | % basal P-gp activity ([5]; basal activity = 100%) [%] | Interaction [3] | CI at ED50 (combination index) [3] | SI C/B (Selectivity Index) [4] | SI C/A (Selectivity Index) [4] | IC50 [4] [µM]
5 | CCC1CN(C)C2Cc3c([nH]c4ccccc34)C(=NN=Cc3ccc(N(C)C)cc3)CC1C2C(=O)OC (centres unmarked) [Compound 12, 3-[(4″-(dimethylamino)benzylidene)hydrazineylidene]dregamine] | 7.42 ± 0.48 | 0.58 | 12.8 ± 0.16 | stimulating the P-gp activity | – | Strong Synergism | 0.231 | 1.91 | 1.10 | 14.2 ± 0.59
6 | CCC1CN(C)C2Cc3c([nH]c4ccccc34)C(=NN=Cc3cc(OC)c(OC)c(OC)c3)CC1C2C(=O)OC (centres unmarked) [Compound 17, 3-[(3″,4″,5″-trimethoxybenzylidene)hydrazineylidene]dregamine] | 7.9 ± 0.44 | 0.87 | 9.07 ± 0.67 | inhibitors of P-gp ATPase activity | < 100 | Synergism | 0.309 | 10.79 | 9.39 | 85.2 ± 1.62
7 | CCC1CN(C)C2Cc3c([nH]c4ccccc34)C(=NNC(=O)NC(C)(C)C)CC1C2C(=O)OC (centres unmarked) [Compound 23] | 12.3 ± 1.8 | – | 26.3 ± 0.5 | – | – | Strong Synergism | 0.163 | >8.11 | >3.81 | > 100
8 | CCC1CN(C)C2Cc3c([nH]c4ccccc34)C(=NNC(=O)NC3CCCCC3)CC1C2C(=O)OC (centres unmarked) [Compound 24] | 5.69 ± 0.71 | – | 12.85 ± 0.12 | – | – | Synergism | 0.301 | 4.68 | 2.07 | 26.6 ± 0.31
9 | CCC1CN(C)C2Cc3c([nH]c4ccccc34)C(=NNC(=O)Nc3ccccc3)CC1C2C(=O)OC (centres unmarked) [Compound 25] | 10.8 ± 0.71 | 0.83 | 12.95 ± 0.04 | – | – | Synergism | 0.345 | 2.56 | 2.13 | 27.6 ± 0.81
10 | CCC1CN(C)C2Cc3c([nH]c4ccccc34)C(=NNC(=O)Nc3ccc(C)cc3)CC1C2C(=O)OC (centres unmarked) [Compound 26] | 8.22 ± 1.1 | 0.87 | 9.41 ± 0.13 | – | – | Synergism | 0.36 | 3.15 | 2.75 | 25.9 ± 0.81
11 | CCC1CN(C)C2Cc3c([nH]c4ccccc34)C(=NNC(=O)Nc3ccc(OC)cc3)CC1C2C(=O)OC (centres unmarked) [Compound 27, 3-[2″-((4‴-methoxyphenyl)carbamoyl)hydrazineylidene]dregamine] | 6.37 ± 0.83 | 0.92 | 6.88 ± 0.35 | – | – | Strong Synergism | 0.225 | 6.32 | 5.84 | 40.2 ± 3.49
